Experimental data as given in ChEMBL document CHEMBL1131741, “Design of scytalone dehydratase inhibitors as rice blast fungicides: (N-phenoxypropyl)-carboxamides” (Bioorg Med Chem Lett, 1999).
pKi: −log10 of the molar value. Values after ≈ are worked out from the molar mass of the structure shown.

Experiments:
rice = assay: Concentration that affords 90% control of blast disease on rice plants by multiple rate foliar rice blast assay; type: functional
Scytalone dehydratase [1] = biological target: T1, Scytalone dehydratase (Magnaporthe oryzae (strain 70-15 / FGSC 8958) (Rice blast fungus)(Pyricularia oryzae), UniProt P56221)
T1 sequence (P56221 whole entry): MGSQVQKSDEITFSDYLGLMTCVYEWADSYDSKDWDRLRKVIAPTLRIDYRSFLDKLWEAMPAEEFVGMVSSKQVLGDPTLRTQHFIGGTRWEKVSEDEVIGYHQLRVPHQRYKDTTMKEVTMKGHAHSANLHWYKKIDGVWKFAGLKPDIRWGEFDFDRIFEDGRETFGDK

Scytalone dehydratase [2] = biological target: T1, Scytalone dehydratase; remark: listed apart in the source

Compound	ED90 (rice) [µg/mL]	pKi (Scytalone dehydratase [1])	Adjusted Ki (Scytalone dehydratase [2]) [nM]
C[C@H](COc1ccccc1F)NC(=O)[C@@H](C#N)C(C)(C)C	25 (≈ 85.5 µM)	10.10	0.08
CC(CCc1ccccc1)NC(=O)C(C#N)C(C)(C)C (stereo not given)	> 200	8.14	1.8
CC(COc1ccccc1F)NC(=O)C(C#N)C(C)(C)C (stereo not given)	50 (≈ 171 µM)	9.62	0.059
C[C@H](COc1cc(F)ccc1F)NC(=O)[C@@H](C#N)C(C)(C)C	0.8 (≈ 2.58 µM)	10.70	0.02
CC(COc1ccccc1)NC(=O)C(C#N)C(C)(C)C (stereo not given)	200 (≈ 729 µM)	8.55	0.7
CC(C)(C)C(C#N)C(=O)NCCCc1ccccc1 (stereo not given)	200 (≈ 774 µM)	7.87	6.8
CC[C@]1(C(=O)NCCCc2ccccc2)C(C)C1(Cl)Cl (stereo not given in full)	30 (≈ 95.5 µM)	8.72	0.96
C[C@H](COc1cccc(F)c1F)NC(=O)[C@@H](C#N)C(C)(C)C	25 (≈ 80.6 µM)	9.02	0.95
C[C@H](COc1ccccc1)NC(=O)c1cc(F)ccc1O		9.36	
CC[C@]1(C(=O)N[C@H](C)COc2cc(F)ccc2F)C(C)C1(Cl)Cl (stereo not given in full)	6 (≈ 16.4 µM)	10.07	0.042
C[C@H](COc1cc(F)ccc1F)NC(=O)C(C#N)C(C)(C)C (stereo not given in full)	6.2 (≈ 20 µM)	10.38	0.021
CC(COc1cccc(F)c1)NC(=O)[C@@H](C#N)C(C)(C)C (stereo not given in full)	25 (≈ 85.5 µM)	9.34	0.23
C[C@@H](COc1cc(F)ccc1F)NC(=O)[C@H](C#N)C(C)(C)C	> 200	7.01	97
CC[C@]1(C(=O)N[C@H](C)COc2ccc(F)cc2)C(C)C1(Cl)Cl (stereo not given in full)	30 (≈ 86.1 µM)	9.66	0.11
C[C@H](COc1ccccc1)NC(=O)[C@H](C#N)C(C)(C)C	> 200	7.18	33
C[C@H](COc1ccccc1)NC(=O)[C@@H](C#N)C(C)(C)C (stereo in doubt; 6f) [listing 1 of 2 here]		9.24	0.58

Compound	ED90 (rice) [µg/mL]	pKi (Scytalone dehydratase [1])	Adjusted Ki (Scytalone dehydratase [2]) [nM]
CC[C@]1(C(=O)N[C@H](C)COc2ccccc2)C(C)C1(Cl)Cl (stereo not given in full)	30 (≈ 90.8 µM)	9.77	0.0835
C[C@H](COc1ccccc1)NC(=O)[C@@H](C#N)C(C)(C)C (stereo in doubt; 6e) [listing 1 of 2 here]	100 (≈ 364 µM)		
C[C@H](COc1ccccc1)NC(=O)[C@@H](C#N)C(C)(C)C (stereo in doubt; 6f) [listing 2 of 2 here]	25 (≈ 91.1 µM)		
CC[C@]1(C(=O)N[C@H](C)COc2ccccc2F)C(C)C1(Cl)Cl (stereo not given in full)	50 (≈ 144 µM)	9.43	0.19
CC[C@]1(C(=O)N[C@H](C)COc2cccc(F)c2)C(C)C1(Cl)Cl (stereo not given in full)	30 (≈ 86.1 µM)	9.96	0.057
CC[C@]1(C(=O)NC(C)CCc2ccccc2)C(C)C1(Cl)Cl (stereo not given in full)	30 (≈ 91.4 µM)	9.08	0.21
C[C@H](COc1cccc(F)c1)NC(=O)[C@@H](C#N)C(C)(C)C	25 (≈ 85.5 µM)	9.62	0.24
CC[C@]1(C(=O)N[C@@H](C)COc2cc(F)ccc2F)C(C)C1(Cl)Cl (stereo not given in full)	100 (≈ 273 µM)	7.48	16
CC[C@]1(C(=O)NC(C)COc2ccccc2)C(C)C1(Cl)Cl (stereo not given in full)	50 (≈ 151 µM)	9.42	0.094
C[C@H](COc1cc(F)ccc1F)NC(=O)[C@H](C#N)C(C)(C)C	6.2 (≈ 20 µM)	9.14	0.73
CC[C@]1(C(=O)NCCOc2ccccc2)C(C)C1(Cl)Cl (stereo not given in full)	200 (≈ 632 µM)	8.12	3.7
C[C@H](COc1ccccc1)NC(=O)[C@@H](C#N)C(C)(C)C (stereo in doubt; 6e) [listing 2 of 2 here]		8.89	0.66
C[C@@H](COc1cc(F)ccc1F)NC(=O)[C@@H](C#N)C(C)(C)C	> 200	8.11	7.7
C[C@H](COc1ccc(F)cc1)NC(=O)C(C#N)C(C)(C)C (stereo not given in full)	100 (≈ 342 µM)	8.77	0.83
CC[C@]1(C(=O)N[C@H](C)COc2cccc(F)c2F)C(C)C1(Cl)Cl (stereo not given in full)	100 (≈ 273 µM)	8.66	2.2
